Experiments:
Cathepsin D = Cathepsin D (Homo sapiens, UniProt P07339); assay: Inhibition of cathepsin D
Beta-secretase 1 = Beta-secretase 1 (Homo sapiens, UniProt P56817); assay: Inhibition of BACE1
Chain of Beta-secretase 1 (P56817 whole entry): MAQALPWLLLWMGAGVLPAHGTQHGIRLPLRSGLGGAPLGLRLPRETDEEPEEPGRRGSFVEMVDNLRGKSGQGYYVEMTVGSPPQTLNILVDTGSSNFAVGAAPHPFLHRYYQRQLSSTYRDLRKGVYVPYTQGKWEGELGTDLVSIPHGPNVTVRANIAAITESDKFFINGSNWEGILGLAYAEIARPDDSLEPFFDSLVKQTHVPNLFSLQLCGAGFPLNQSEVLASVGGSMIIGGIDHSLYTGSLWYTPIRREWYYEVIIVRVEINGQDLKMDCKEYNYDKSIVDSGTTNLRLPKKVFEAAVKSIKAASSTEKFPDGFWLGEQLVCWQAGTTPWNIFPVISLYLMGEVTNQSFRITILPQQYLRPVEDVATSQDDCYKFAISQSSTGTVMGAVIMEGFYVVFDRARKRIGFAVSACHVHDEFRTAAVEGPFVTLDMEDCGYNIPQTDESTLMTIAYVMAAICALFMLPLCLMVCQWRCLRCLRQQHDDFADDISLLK

Chain of Cathepsin D (P07339 65-162 limits assumed): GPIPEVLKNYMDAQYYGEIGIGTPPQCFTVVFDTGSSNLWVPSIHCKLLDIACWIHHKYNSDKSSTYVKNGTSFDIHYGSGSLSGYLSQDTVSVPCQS
Chain of Cathepsin D (P07339 169-412 limits assumed): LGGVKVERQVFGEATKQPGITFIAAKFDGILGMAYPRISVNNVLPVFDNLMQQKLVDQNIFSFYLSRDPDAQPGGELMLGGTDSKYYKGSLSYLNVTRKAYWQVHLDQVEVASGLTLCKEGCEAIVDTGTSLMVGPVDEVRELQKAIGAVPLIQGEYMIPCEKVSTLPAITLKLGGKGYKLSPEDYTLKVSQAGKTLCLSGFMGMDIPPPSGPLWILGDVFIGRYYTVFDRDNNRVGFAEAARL

| IC50 (Cathepsin D) [nM] | IC50 (Beta-secretase 1) [nM] | Compound |
| --- | --- | --- |
| 450 | 100 | CCCN(CCC)C(=O)c1cc(C)cc(C(=O)N[C@@H](Cc2ccccc2)[C@H](O)CNCc2cccc(OC)c2)c1 |
| 2800 | 100 | CCCN(CCC)C(=O)c1cc(C(N)=O)cc(C(=O)N[C@@H](Cc2ccccc2)[C@H](O)CNCc2cccc(OC)c2)c1 |
| 3600 | 30 | CCCN(CCC)C(=O)c1cc(C(=O)O)cc(C(=O)N[C@@H](Cc2ccccc2)[C@H](O)CNCc2cccc(OC)c2)c1 |
| 3800 | 70 | CCCN(CCC)C(=O)c1cc(C(=O)N[C@@H](Cc2ccccc2)[C@H](O)CNCc2cccc(OC)c2)cc(C(=O)N(C)C)c1 |
| 866 | 132 | CCCN(CCC)C(=O)c1cc(C(=O)N[C@@H](Cc2ccccc2)[C@H](O)CNCc2cccc(OC)c2)cc(C(=O)OCC)c1 |

More lines, now with the values behind:

| Compound | IC50 (Cathepsin D) [nM] | IC50 (Beta-secretase 1) [nM] |
| --- | --- | --- |
| CCCN(CCC)C(=O)c1cc(CC#N)cc(C(=O)N[C@@H](Cc2ccccc2)[C@H](O)CNCc2cccc(OC)c2)c1 | 570 | 360 |
| CCCNC(=O)c1cc(C#N)cc(C(=O)N[C@@H](Cc2ccccc2)[C@H](O)CNCc2cccc(OC)c2)c1 | > 20000 | 770 |
| CCCN(CCC)C(=O)c1cc(C#N)cc(C(=O)N[C@@H](Cc2ccccc2)[C@H](O)CNCc2cccc(OC)c2)c1 | 660 | 90 |
| CCCNC(=O)c1cc(C(N)=O)cc(C(=O)N[C@@H](Cc2ccccc2)[C@H](O)CNCc2cccc(OC)c2)c1 | > 20000 | 1900 |
| CCCN(CCC)C(=O)c1cc(C(=O)N[C@@H](Cc2ccccc2)[C@H](O)CNCc2cccc(OC)c2)cc(C(=O)N(CCC)CCC)c1 | 3600 | 250 |
| CCCN(CCC)C(=O)c1cc(C)cc(C(=O)N[C@@H](Cc2cc(F)cc(F)c2)[C@H](O)CNCc2cccc(CC)c2)c1 | 150 | 2 |
| CCCN(CCC)C(=O)c1cc(C(N)=O)cc(C(=O)N[C@@H](Cc2ccc(O)cc2)[C@H](O)CNCc2cccc(OC)c2)c1 | > 20000 | 300 |
| CCCN(CCC)C(=O)c1cc(C(N)=O)cc(C(=O)N[C@@H](Cc2cc(F)cc(F)c2)[C@H](O)CNCc2cccc(OC)c2)c1 | 2400 |  |
| CCCN(CCC)C(=O)c1cc(C(N)=O)cc(C(=O)N[C@@H](Cc2cc(F)cc(F)c2)[C@H](O)CNCc2cccc(CC)c2)c1 | 1600 | 5 |
